Source: patent publication US20050108047A1, “Business methods for commercializing antibiotics” (priority 2003, published 2005)

Tested on: E. coli strain MG1655 and isogenic loss of function strains
Test: Stressful Lifestyle Adaptive Mutation (SLAM) assay with ciprofloxacin
Assay type: cell-based
Description: […]. Five colonies of each strain, selected from 30 ug/mL kan plates, were grown for 24 hours in LB at 37° C. Dilutions of each culture were made in duplicate and plated on LB plates to determine the number of viable cells.
Also, two 150 μL cultures from each strain were plated on five additional plates for use in ‘survival’ experiments (see below). […] Every twenty-four hours for thirteen days post-plating, colonies were counted and marked and up to 10 representative colonies per strain were stocked in 15% glycerol and stored at −80° C., for use in the reconstruction experiments (see below). […]. After thirteen days, a reconstruction experiment [see FIG. 6; also see Bull, H J, Lombardo, M J, Rosenberg, S M: Stationary-phase mutation in the bacterial chromosome: recombination protein and DNA polymerase IV dependence. Proc Natl Acad Sci USA 2001, 98:8334-8341; and Rosenberg, S M: Evolving responsively: adaptive mutation. Nature Rev Genet 2001, 2:504-515] was performed to determine which of the resistant colonies isolated had evolved resistance via adaptive mutation after exposure to the antibiotic. […]. Only those colonies that grew in a shorter time during the reconstruction experiment than in the original experiment were considered to have acquired an adaptive mutation, i.e. occurred after exposure to the antibiotic. […].
[…]. […]

O=C(O)c1cn(C2CC2)c2cc(N3CCNCC3)c(F)cc2c1=O [ciprofloxacin]
ability to evolve resistance to ciprofloxacin, LexA(Ind−) strain versus wild type (LexA S119A mutant, 35 ng/mL ciprofloxacin): more than two orders of magnitude less able to evolve resistance | decrease in rate of evolving the ability to grow at 60 ng/mL ciprofloxacin, LexA mutant (mutants selected at 35 ng/mL ciprofloxacin): 300 fold
